In patent publication US11622964B2, “Method for destroying cellular mechanical homeostasis and promoting regeneration and repair of tissues and organs, and use thereof” (INSTITUTE OF ZOOLOGY, CHINESE ACADEMY OF SCIENCES, priority 2018, dated 2023):

What was measured:
[1] = system: mouse embryonic fibroblasts (MEFs); assay: TGF-β1-induced transformation of mouse embryonic fibroblasts into myofibroblasts; format: cell-based; conditions: S-Bleb-OB 20 μM; for stretched state / fibrous morphology of MEFs: compared with DMSO; for TGF-β1-induced myofibroblast activation: scheme as Example 9-1
Source text: In this example, cell models for in vitro fibrosis are respectively built to activate mouse hepatic stellate Cells (mHSCs, FIG. 13(B)), mouse embryonic fibroblasts (MEFs FIG. 13(C)), mouse adult liver, lung, and heart-derived primary mesenchymal cells (priMCs, FIG. 13(D)), and human hepatic stellate cells (hLX-2, FIG. 13(E)) into myofibroblasts through the induction of TGF-β1. The specific experimental procedure is as shown in FIG. 9A: a medium containing 10% serum is used for the initial cell culture; after 24 hours the medium is replaced with low serum medium (or pre-starvation treatment for 16 hours) while adding 3 ng/ml TGF-β1 with DMSO or Bleb (20 μM); after 7 days the expression of myofibroblast activation marker protein (Acta2), collagen (Col1a1, Col1a2, Col3a1, and Col1a2), and matrix metalloproteinases and inhibitors (collagenases: MmP8, and MmP13; gelatinases: MmP2, and MmP9; a metalloproteinase inhibitor: Timp1/2/3) are identified.

adult hepatocytes = assay: In vitro amplification of adult hepatocytes; format: cell-based, human; conditions: for number of cells: after 6 days of culture
Experimental: Resuscitation and Culture of Adult Hepatocytes: adult hepatocytes ([…] […] human, Bioreclamation IVT) are taken out from the liquid nitrogen tank, quickly placing in a 37° C. water bath, after melting the cells are added to 5 ml of 37° C. pre-warmed hepatocyte inoculation medium (In VitroGRO CP Medium), then inoculating at 9×10^4/well in 24-well plate after counting, 2-4 hours after hepatocyte adherence, the hepatocyte inoculation medium is sucked and discarded, then respectively adding control medium for hepatocyte culture, 10 μm small molecule medium, and 20 μm small molecule medium; changing the medium every 2 days. The number of cells is estimated from the photograph on day 2. After 4 days, the 20 μm small molecule medium group is changed to culture the cells in 10 μm small molecule medium. After co-culturing for 6 days the cells are counted. A portion of the cells are taken for RNA extraction so as to detect the expression of human hepatocyte-specific genes. Passage of Adult Hepatocytes: 4.7×10^4 hepatocytes cultured in the above control group, and 8×10^4 hepatocytes cultured in 10 μm small molecule medium are respectively re-inoculated into 24-well plate coated with rat tail collagen, changing the medium every two days and culturing for 6 days, photographs are taken to record the growth of the cells. Induction of CYP1A2 in Adult Hepatocytes Amplified by Small Molecule Medium: 3×10^5 hepatocytes are inoculated in 24-well plate coated with rat tail collagen, after culturing in 10 μm small molecule medium for 24 hours, the medium is replaced with 10 μm small molecule medium containing 50 μm omeprazole, and in the control group the cells are cultured in 10 μm small molecule medium containing DMSO; 48 hours later, the cells are collected to detect the expression of the CYP1A2 gene.

Cc1ccc2c(c1)C(=O)[C@@]1(O)CCN(c3ccccc3)C1=N2 [R-Bleb, (R)-(+)-blebbistatin]
stretched state / fibrous morphology of MEFs [1]: does not affect the fibrous morphology | TGF-β1-induced myofibroblast activation [1]: no inhibitory effect

Cc1ccc2c(c1)C(=O)[C@]1(OC(=O)c3ccccc3)CCN(c3ccccc3)C1=N2 [S-Bleb-OB, (−)-blebbistatin o-benzoate]
stretched state / fibrous morphology of MEFs [1]: may destroy the stretched state | TGF-β1-induced myofibroblast activation [1]: capable of inhibiting

COc1ccc2[nH]c([S+]([O-])Cc3ncc(C)c(OC)c3C)nc2c1 (stereo not drawn) [omeprazole]
expression of CYP1A2 gene after induction (adult hepatocytes; 50 μm omeprazole, 48 hours, subcultured adult hepatocytes in 10 μm small molecule medium): increase

(−)-blebbistatin
amplification effect on adult hepatocytes (cell number day 6 / day 2) (adult hepatocytes): significant amplification effect | expression of human hepatocyte specific genes ALBUMIN, AFP, CYP1A2, CYP3A4 (adult hepatocytes): still express | subculture of human hepatocytes (adult hepatocytes): can subculture human hepatocytes | number of cells (adult hepatocytes; 10 μm group): 6.47×10^4 (SD=1.24) | number of cells (adult hepatocytes; # group (20 μm for 4 days, then 10 μm for 2 days)): 9.47×10^4 (SD=0.98) | expression of proliferating cell nuclear antigen (PCNA) gene (adult hepatocytes; vs control group): significantly higher

(−)-blebbistatin o-benzoate [S-Bleb-OB]
TGF-β1-induced myofibroblast activation [1]: have an inhibitory effect
